The values below come from patent US7803803B2, “Tetrahydrofuro[3,2-B] pyrrol-3-ones as cathepsin K inhibitors” (Amura Therapeutics Limited, priority 2007, dated 2010).

As a reminder, the logD is the decadic logarithm of the distribution of all forms, ionised or not, between an organic phase and buffer at a given pH. Broadly, the Ki is a measure of affinity in units of concentration, obtained from inhibition or displacement.

Series [1] can be described thus: Plasma incubations (human plasma stability). Note: tested at 25 µM. The format is in vitro ADME. As to conditions: 37° C.
Procedure: Aliquots were removed at 2 and 60 minutes and quenched with an equal volume of cold acetonitrile. After mixing vigorously, the precipitated protein matter was removed by filtration (Multiscreen Solvinert filter plates, Millipore, Bedford, Mass., USA) and the filtrate analysed by reverse phase HPLC with mass spectrometric detection, using single ion monitoring of the [M+H]^+ species. Metabolic turnover was determined by comparison of peak areas from the ion chromatograms of the parent compound at 2 and 60 minutes and expressed as percent remaining at 1 hour.
Series [2] in a line: LogD determinations. The format is physicochemical. The note with it: Ion-count method; for logD at 1 h: 1-octanol/phosphate buffered saline, pH 7.4, pH 7.4.
Procedure: LogD(PBS) determinations were performed in 96 well microtitre plates using a miniaturised “shake-flask” method. […] The plates were then capped and mixed vigorously for 1 hour on a microtitre plate shaker, after which they were left to stand, allowing the PBS and octanol phases to separate. The PBS layer was analysed by reverse phase HPLC with mass spectrometric detection, using single ion monitoring of the [M+H]^+ species.
Where AUCstd and AUCpbs are the peak areas from the standard and test ion chromatograms respectively.
Series [3] has as its system human osteoclasts. As to conditions: human osteoclast, literature value; cited from earlier work.
The conditions of series [4]: UV method, literature value; cited from earlier work.
The target of series [5] is T1, cathepsin K (Homo sapiens, UniProt P43235).
T1 sequence (P43235 115-329): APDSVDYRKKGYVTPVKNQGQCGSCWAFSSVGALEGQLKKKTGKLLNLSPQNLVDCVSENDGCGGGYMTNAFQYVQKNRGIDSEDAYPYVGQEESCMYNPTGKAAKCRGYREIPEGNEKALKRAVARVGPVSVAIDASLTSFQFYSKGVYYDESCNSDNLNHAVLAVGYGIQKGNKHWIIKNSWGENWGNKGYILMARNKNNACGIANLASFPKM
Kind of series: In vitro cathepsin Ki inhibition measurements. It counts as biochemical. Also on record: purchased B. Turk, Josef Stefan Institute, Ljubljana, Slovenia. As to conditions: human recombinant cathepsin K; read-out: In vitro Ki (nM) vs Cath K. How it is done: Stock solutions of substrate or inhibitor were made up to 10 mM in 100% dimethylsulfoxide (DMSO) (Rathburns, Glasgow, U.K.) and diluted as appropriately required. In all cases the DMSO concentration in the assays was maintained at less than 1% (vol./vol.). The equilibrium inhibition constants (Ki^SS) for each compound were measured under steady-state conditions monitoring enzyme activity as a function of inhibitor concentration. The values were calculated on the assumption of pure competitive behaviour (Cornish-Bowden, A. Fundamentals of enzyme kinetics Portland Press; 1995, 93-128). Human recombinant cathepsin K (0.25 nM final; B. Turk, Josef, Stefan Institute, Ljubljana, Slovenia), was routinely assayed in 100 mM sodium acetate; pH 5.5 containing 1 mM EDTA, 10 mM L-cysteine and 1.8 μM Z-Leu-Arg-AMC ([S]═KM).
The apparent inhibition constant (Ki) for each compound was determined on the basis that inhibition was reversible and occurred by a pure-competitive mechanism. The Ki values were calculated, from the dependence of enzyme activity as a function of inhibitor concentration, by direct regression analysis (Prism v 3.02) using Equation 2 (Cornish-Bowden, A., 1995).
In situations where the apparent dissociation constant (Ki^app) approached the enzyme concentrations, the Ki^app values were calculated using a quadratic solution in the form described by Equation 3 (Morrison, J. F. Trends Biochem. Sci., 7, 102-105, 1982; Morrison, J. F. Biochim. Biophys. Acta, 185, 269-286, 1969; Stone, S. R. and Hofsteenge, J. Biochemistry, 25, 4622-4628, 1986).
Curves were fitted by non-linear regression analysis (Prism) using a fixed value for the enzyme concentration. Equation 4 was used to account for the substrate kinetics, where ‘Ki’ is the inhibition constant, ‘[So]’ is the initial substrate concentration and ‘KM^app’ is the apparent macroscopic binding (Michaelis) constant for the substrate (Morrison, 1982).

The subject of series [6] is human osteoclasts. Kind of series: Human osteoclast resorption assay. The format is cell-based. As to conditions: Homo sapiens, Osteoclast, 48 h, 1 □ M, read-out: Cell-based % Inh. @ 1 □ M Human. How it is done: Bone resorption was studied using a model where human osteoclast precursor cells were cultured on bovine bone slices for 9 days and allowed to differentiate into bone-resorbing osteoclasts. The formed mature osteoclasts were then allowed to resorb bone. The assay was performed by Pharmatest Services Ltd, Itäinen Pitkakatu 4C, Turku, Finland. After the culture period, bone collagen degradation products were quantified from the culture medium as an index of bone resorption. Inhibitor compounds were added into the cell cultures after the differentiation period and their effects on the resorbing activity of mature osteoclasts were determined. The studies included a baseline group without added compounds and a positive control group where a potent cathepsin K inhibitor E-64 was added.
Human peripheral blood monocytes were suspended to culture medium and allowed to attach to bovine bone slices. The bone slices were transferred into 96-well tissue culture plates containing culture medium with appropriate amounts of important growth factors favouring osteoclast differentiation, including M-CSF, RANK-ligand and TGF-[…]. The cells were incubated in a CO2 incubator in humidified atmosphere of 95% air and 5% carbon dioxide at 37° C. At day 7 when osteoclast differentiation was complete, the culture medium was replaced with culture medium containing conditions favouring osteoclast activity. The cell culture was continued for an additional 2 days, during which the formed mature osteoclasts were allowed to resorb bone in the presence of vehicle, control inhibitor (E64) or test compounds. At the end of the culture, bone collagen degradation products released into the culture medium were determined using a commercially available ELISA method (CrossLaps® for culture, Nordic Bioscience, Herlev, Denmark) as an index of bone resorption (see Bagger, Y. Z. et al, J. Bone. Miner. Res. 14 (suppl. 1), S370).

As to `CC(C)C[C@H](NC(=O)c1ccc(C(C)(C)C)cc1)C(=O)N1CC[C@H]2OCC(=O)[C@H]21` [reference compound], the “Human Plasma Stability % rem. @ 1 h” value in series [1] came out at 75%. Also, in series [2], the logD at 1 h was determined as 1.36. For the same compound, the “Cell-based % Inh. @ 1 □ M Human (Lit.)” value in series [3] is “Lit. 60%”.

As to `CC(C)C[C@H](NC(=O)c1ccc(N2CCN(C)CC2)cc1)C(=O)N1CC[C@H]2OCC(=O)[C@H]21` [reference compound], the “Human Plasma Stability % rem. @ 1 h” value in series [1] is reported as 95%. Moreover, the logD at 1 h in series [2] was found to be 0.56. Besides, the “LogD pH 7.4 (Lit.)” value in series [4] is 0.04. In addition, the Ki in series [5] is 8.7 nM.

Regarding `COCCN1CCN(c2ccc(C(=O)N[C@@H](CC(C)C)C(=O)N3C[C@H](N)[C@H]4OCC(=O)[C@H]43)cc2)CC1` [Example 23, N—((S)-1-((3aS,6S,6aR)-6-amino-3-oxodihydro-2H-furo[3,2-b]pyrrol-4(5H,6H,6aH)-yl)-4-methyl-1-oxopentan-2-yl)-4-(4-(2-methoxyethyl)piperazin-1-yl)benzamide], the inhibition at 1 µM in series [6] was 25 to 54%. For the same compound, the “Human Plasma Stability % rem. @ 1 h” value in series [1] stood at 88%. In addition, in series [2], the “LogD pH 7.4” value came out at 0.55. In addition, the Ki in series [5] amounted to 11.2 nM.

Take `CCN1CCN(c2ccc(C(=O)N[C@@H](CC(C)(C)C)C(=O)N3C[C@@H](OC)[C@H]4OCC(=O)[C@H]43)cc2)CC1` [Example 8, 4-(4-ethylpiperazin-1-yl)-N—((S)-1-((3aS,6R,6aS)-6-methoxy-3-oxodihydro-2H-furo[3,2-b]pyrrol-4(5H,6H,6aH)-yl)-4,4-dimethyl-1-oxopentan-2-yl)benzamide]: the inhibition at 1 µM in series [6] was 63 to 88%. Also, the “Human Plasma Stability % rem. @ 1 h” value in series [1] is recorded as 92%. For the same compound, in series [2], the logD at 1 h is greater than 0.8 and the “LogD pH 7.4” value is 1.09. Moreover, the Ki in series [5] was 9.2 nM.

For the compound `CCCN1CCN(c2ccc(C(=O)N[C@@H](CC(C)(C)C)C(=O)N3C[C@@H](OC)[C@H]4OCC(=O)[C@H]43)cc2)CC1` [Example 16, N—((S)-1-((3aS,6R,6aS)-6-methoxy-3-oxodihydro-2H-furo[3,2-b]pyrrol-4(5H,6H,6aH)-yl)-4,4-dimethyl-1-oxopentan-2-yl)-4-(4-propylpiperazin-1-yl)benzamide], the inhibition at 1 µM in series [6] lay in the range of 63 to 88%. Moreover, the “Human Plasma Stability % rem. @ 1 h” value in series [1] stood at 97%. In addition, the “LogD pH 7.4” value in series [2] was found to be 1.69. Moreover, the Ki in series [5] amounted to 3.7 nM.

Take `CCCN1CCN(c2ccc(C(=O)N[C@@H](CC(C)C)C(=O)N3C[C@@H](OC)[C@H]4OCC(=O)[C@H]43)cc2)CC1` [Example 15, N—((S)-1-((3aS,6R,6aS)-6-methoxy-3-oxodihydro-2H-furo[3,2-b]pyrrol-4(5H,6H,6aH)-yl)-4-methyl-1-oxopentan-2-yl)-4-(4-propylpiperazin-1-yl)benzamide]: in series [6], the inhibition at 1 µM lay within 63 to 88%. Further, the “Human Plasma Stability % rem. @ 1 h” value in series [1] came out at 92%. In addition, in series [2], the logD at 1 h is greater than 0.8 and the “LogD pH 7.4” value amounted to 1.34. The Ki in series [5] was found to be 16.3 nM.
